For orientation: EC50 means the concentration that produces a half-maximal response.

Chain of 5-HT4 receptors (Q13639 whole entry): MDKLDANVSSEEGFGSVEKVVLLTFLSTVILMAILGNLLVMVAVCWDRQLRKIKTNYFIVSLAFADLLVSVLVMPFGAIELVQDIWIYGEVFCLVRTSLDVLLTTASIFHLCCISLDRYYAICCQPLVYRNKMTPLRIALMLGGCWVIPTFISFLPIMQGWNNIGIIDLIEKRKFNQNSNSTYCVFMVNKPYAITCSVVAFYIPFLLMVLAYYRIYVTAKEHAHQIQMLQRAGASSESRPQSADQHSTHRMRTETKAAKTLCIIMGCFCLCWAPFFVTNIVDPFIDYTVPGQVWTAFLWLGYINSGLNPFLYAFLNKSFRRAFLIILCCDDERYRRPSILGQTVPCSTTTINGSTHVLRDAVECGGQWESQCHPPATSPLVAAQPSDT

For the experiment, the target named is 5-HT4 receptors (Homo sapiens (Human), UniProt Q13639). The experiment is described as follows: Determination of EC50 values for 5-HT4 receptor (pCRE-Luc reporter assay). The format is cell-based. The note with it: CHO cells expressing recombinant human 5-HT4 receptor and pCRE-Luc reporter; 4 h incubation; luciferase activity. How it is done:
A stable CHO cell line expressing recombinant human 5-HT4 receptor and pCRE-Luc reporter system was used for cell-based assay. The assay offers a non-radioactive based approach to determine binding of a compound to GPCRs. In this specific assay, the level of intracellular cyclic AMP, which is modulated by activation, or inhibition of the receptor is measured. The recombinant cells harbor luciferase reporter gene under the control of cAMP response element.
The above cells were grown in 96 well clear bottom white plates in Ham's F12 medium containing 10% fetal bovine serum. Prior to the addition of compounds or standard agonist, cells were serum starved overnight. Increasing concentrations of test compounds were added to the cells in OptiMEM medium. The incubation was continued in CO2 incubator at 37° C. with 5% CO2 conditions for 4 h. Medium was removed and cells were washed with phosphate buffered saline. The cells were lysed and luciferase activity was measured in a Luminometer. Concentration-response data was generated using the luciferase assay, following incubation of cells with receptor ligands, were analyzed by subtracting basal levels (i.e. with medium alone), then normalizing values as a percentage of controls (endogenous agonist serotonin (10 μM)). […] EC50 values of the compounds were defined as the concentration required in stimulating the luciferase activity by 50%.
Regarding `CC(C)n1c(=O)c(C(=O)NC2CC3CCC(C2)N3CC(O)CN(C)S(C)(=O)=O)cc2cccn21` (racemic) [Example 5, Racemic-N-{8-[2-Hydroxy-3-[(N-methyl)methanesulfonamido]propyl]-8-azabicyclo[3.2.1]oct-3-yl} [1-isopropyl-2-oxo-1,2-dihydro pyrrolo[1,2-b]pyridazine]-3-carboxamide], the EC50 turned out to be 3.1 nM. For `CC(C)n1c(=O)c(C(=O)NC2CC3CCC(C2)N3CC(O)CN(C)S(C)(=O)=O)cc2cccn21` (racemic) [Example 6, Racemic-N-{8-[2-Hydroxy-3-[(N-methyl)methanesulfonamido]propyl]-8-azabicyclo[3.2.1]oct-3-yl} [1-isopropyl-2-oxo-1,2-dihydro pyrrolo[1,2-b]pyridazine]-3-carboxamide L(+)-tartarate], the EC50 is 3.3 nM.

With `CC(C)n1c(=O)c(C(=O)NC2CC3CCC(C2)N3C[C@@H](O)CN(C)S(C)(=O)=O)cc2cccn21` (single isomer, unassigned) [Example 1], the EC50 was found to be 2 nM. Take `CC(C)n1c(=O)c(C(=O)NC2CC3CCC(C2)N3C[C@H](O)CN(C)S(C)(=O)=O)cc2cccn21` (single isomer, unassigned) [Example 3]: the EC50 was found to be 9 nM. Under `CC(C)n1c(=O)c(C(=O)NC2CC3CCC(C2)N3C[C@@H](O)CN(C)S(C)(=O)=O)c(O)c2cccn21` (stereo partly drawn) [Example 7, (R)-N-{8-[2-Hydroxy-3-[(N-methyl)methanesulfonamido]propyl]-8-azabicyclo[3.2.1]oct-3-yl} [4-hydroxy-1-isopropyl-2-oxo-1,2-dihydro pyrrolo[1,2-b]pyridazine]-3-carboxamide] stands 10.1 nM.

For `CC(C)n1c(=O)c(C(=O)NC2CC3CCC(C2)N3C[C@@H](O)CN(C)S(C)(=O)=O)c(O)c2cccn21` (stereo partly drawn) [Example 8, (R)-N-{8-[2-Hydroxy-3-[(N-methyl)methanesulfonamido]propyl]-8-azabicyclo[3.2.1]oct-3-yl} [4-hydroxy-1-isopropyl-2-oxo-1,2-dihydro pyrrolo[1,2-b]pyridazine]-3-carboxamide L-(+)-tartarate], the EC50 was found to be 6.1 nM. For `CC(C)n1c(=O)c(C(=O)NC2CC3CCC(C2)N3C[C@@H](O)CNS(C)(=O)=O)cc2cccn21` (stereo partly drawn) [Example 14, (R)-N-{8-[2-Hydroxy-3-(methanesulfonamido)propyl]-8-azabicyclo[3.2.1]oct-3-yl} [1-isopropyl-2-oxo-1,2-dihydro pyrrolo[1,2-b]pyridazine]-3-carboxamide L-(+)-tartarate], the EC50 was 6.3 nM.

For the compound `CC(=O)N(C)C[C@H](O)CN1C2CCC1CC(NC(=O)c1cc3cccn3n(C(C)C)c1=O)C2` (stereo partly drawn) [Example 15, (R)-N-{8-[2-Hydroxy-3-[(N-methyl)acetamido]propyl]-8-azabicyclo[3.2.1]oct-3-yl} [1-isopropyl-2-oxo-1,2-dihydro pyrrolo[1,2-b]pyridazine]-3-carboxamide], the EC50 worked out at 8 nM. Turning to `CC(C)n1c(=O)c(C(=O)NC2CC3CCC(C2)N3C[C@@H](O)CN2CCN(S(C)(=O)=O)CC2)cc2cccn21` (stereo partly drawn) [Example 18, (R)-N-{8-[2-Hydroxy-3-[(1-methanesulfonylpiperazin)-4-yl]propyl]-8-azabicyclo[3.2.1]oct-3-yl} [1-isopropyl-2-oxo-1,2-dihydro pyrrolo[1,2-b]pyridazin]-3-carboxamide L(+)tartarate], the EC50 was 2.4 nM. With `CC(C)n1c(=O)c(C(=O)NC2CC3CCC(C2)N3C[C@@H](O)CN2CCN(S(C)(=O)=O)CC2)c(O)c2cccn21` (stereo partly drawn) [Example 20, (R)-N-{8-[2-Hydroxy-3-[(1-methanesulfonylpiperazin)-4-yl]propyl]-8-azabicyclo[3.2.1]oct-3-yl} [4-hydroxy-1-isopropyl-2-oxo-1,2-dihydro pyrrolo[1,2-b]pyridazin]-3-carboxamide L-(+)-tartarate], the EC50 was 14 nM. `CC(C)n1c(=O)c(C(=O)NC2CC3CCC(C2)N3CCCN(C)S(C)(=O)=O)cc2cccn21` (stereo not drawn) [Example 22, N-{8-[3-[(N-Methyl)methanesulfonamido]propyl]-8-azabicyclo[3.2.1]oct-3-yl} [1-isopropyl-2-oxo-1,2-dihydro pyrrolo[1,2-b]pyridazine]-3-carboxamide]: the EC50 is 58 nM.

Regarding `CC(C)n1c(=O)c(C(=O)NC2CC3CCC(C2)N3CCCNS(C)(=O)=O)cc2cccn21` [Example 24, N-{8-[3-[methanesulfonamido]propyl]-8-azabicyclo[3.2.1]oct-3-yl} [1-isopropyl-2-oxo-1,2-dihydro pyrrolo[1,2-b]pyridazine]-3-carboxamide L-(+)-tartarate], the EC50 is 11 nM.

`CC(C)n1c(=O)c(C(=O)NC2CC3CCC(C2)N3CCCNS(=O)(=O)C(C)C)cc2cccn21` (stereo not drawn) [Example 25, N-{8-[3-Isopropylsulfonylaminopropyl]-8-azabicyclo[3.2.1]oct-3-yl} [1-isopropyl-2-oxo-1,2-dihydro pyrrolo[1,2-b]pyridazin]-3-carboxamide]: the EC50 worked out at 13 nM. As to `CC(C)n1c(=O)c(C(=O)NC2CC3CCC(C2)N3CCNS(=O)(=O)C(C)C)cc2cccn21` (stereo not drawn) [Example 29, N-{8-[2-Isopropylsulfonylaminoethyl]-8-azabicyclo[3.2.1]oct-3-yl} [1-isopropyl-2-oxo-1,2-dihydro pyrrolo[1,2-b]pyridazin]-3-carboxamide], the EC50 turned out to be 16 nM. As for `CC(=O)NCCCN1C2CCC1CC(NC(=O)c1cc3cccn3n(C(C)C)c1=O)C2` (stereo not drawn) [Example 31, N-{8-[3-Acetamidopropyl]-8-azabicyclo[3.2.1]oct-3-yl} [1-isopropyl-2-oxo-1,2-dihydro pyrrolo[1,2-b]pyridazin]-3-carboxamide], the EC50 is 35.1 nM.

Consider `COC(=O)NCCCN1C2CCC1CC(NC(=O)c1cc3cccn3n(C(C)C)c1=O)C2` (stereo not drawn) [Example 33, N-{8-[3-Carbomethoxyaminopropyl]-8-azabicyclo[3.2.1]oct-3-yl} [1-isopropyl-2-oxo-1,2-dihydro pyrrolo[1,2-b]pyridazin]-3-carboxamide], for which the EC50 came out at 12 nM. `COC(=O)NCCN1C2CCC1CC(NC(=O)c1cc3cccn3n(C(C)C)c1=O)C2` (stereo not drawn) [Example 35, N-{8-[2-Carbomethoxyaminomethyl]-8-azabicyclo[3.2.1]oct-3-yl} [1-isopropyl-2-oxo-1,2-dihydro pyrrolo[1,2-b]pyridazin]-3-carboxamide]: the EC50 was determined as 12 nM. As for `CC(=O)N1CCN(CCN2C3CCC2CC(NC(=O)c2cc4cccn4n(C(C)C)c2=O)C3)CC1` [Example 38, N-{8-[2-(4-Acetylpiperazin-1-yl)ethyl]-8-azabicyclo[3.2.1]oct-3-yl} [1-isopropyl-2-oxo-1,2-dihydro pyrrolo[1,2-b]pyridazine]-3-carboxamide L-(+)-tartrate], the EC50 is 15.4 nM.

The values above are taken from patent US20250019386A1, “PYRROLO[1,2-b]-2-PYRIDAZINONE COMPOUNDS AS 5-HT4 RECEPTOR AGONISTS” (SUVEN LIFE SCIENCES LIMITED, priority 2022, published 2025).
